Article PMC7662280 (Molecules, 2020)
Values joined by “and” are separate entries in the source; they are usually repeats but may differ in a detail not shown here. Equal values may be shown once. Read-outs that look alike come from different tables or passages of the source.

Legend:
[1] = molecular target: T1, soybean lipoxygenase (isozyme LOX-1) (Glycine max, UniProt P08170); settings: previously published, cited from earlier work; for IC50: read-out: LOX IC50 (μM) ± SEM
T1 construct: purchased Sigma Chemical, Co. (St. Louis, MO, USA)
T1 sequence (P08170 1-839): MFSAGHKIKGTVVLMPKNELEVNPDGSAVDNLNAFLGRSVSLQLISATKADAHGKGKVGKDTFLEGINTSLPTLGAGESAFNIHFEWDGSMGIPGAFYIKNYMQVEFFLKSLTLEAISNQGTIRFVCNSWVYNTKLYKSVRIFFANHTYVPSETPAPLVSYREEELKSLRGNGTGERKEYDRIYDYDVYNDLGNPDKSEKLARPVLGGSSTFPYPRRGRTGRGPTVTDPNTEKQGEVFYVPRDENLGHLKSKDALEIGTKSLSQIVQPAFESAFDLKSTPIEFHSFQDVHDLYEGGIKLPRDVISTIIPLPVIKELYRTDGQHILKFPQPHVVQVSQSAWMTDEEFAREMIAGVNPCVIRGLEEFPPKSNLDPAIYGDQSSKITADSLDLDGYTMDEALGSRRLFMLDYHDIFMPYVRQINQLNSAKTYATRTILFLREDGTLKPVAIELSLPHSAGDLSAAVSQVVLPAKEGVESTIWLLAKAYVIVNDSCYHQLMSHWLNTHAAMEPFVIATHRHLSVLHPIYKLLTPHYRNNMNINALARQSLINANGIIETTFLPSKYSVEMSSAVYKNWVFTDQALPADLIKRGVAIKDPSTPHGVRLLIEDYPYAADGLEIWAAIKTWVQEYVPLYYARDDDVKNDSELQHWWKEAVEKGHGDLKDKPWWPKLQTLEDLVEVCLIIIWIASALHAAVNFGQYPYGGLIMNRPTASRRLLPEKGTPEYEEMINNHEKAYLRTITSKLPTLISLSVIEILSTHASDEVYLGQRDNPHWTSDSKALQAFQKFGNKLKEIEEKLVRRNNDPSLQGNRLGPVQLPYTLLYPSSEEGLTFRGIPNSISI

[2] = Inhibition of linoleic acid peroxidation induced by AAPH; settings: anti-lipid peroxidation of linoleic acid, 100 μM
[3] = Experimental lipophilicity as RM values by RPTLC; type: physicochemical; settings: silica gel impregnated with liquid paraffin, methanol/water 77/23, 24 °C
eel AChE = molecular target: T2, eel AChE (Electrophorus electricus, UniProt O42275); assay: biochemical; settings: for inhibition at 100 µM: n.a. = no activity under the experimental conditions, read-out: AChE (% Inhibition at 100 μM) ± SEM; for IC50: acetylthiocholine substrate, read-out: AChE IC50 (μM) ± SEM
T2 construct: purchased Sigma-Aldrich Type VI-S
T2 sequence (O42275 24-633): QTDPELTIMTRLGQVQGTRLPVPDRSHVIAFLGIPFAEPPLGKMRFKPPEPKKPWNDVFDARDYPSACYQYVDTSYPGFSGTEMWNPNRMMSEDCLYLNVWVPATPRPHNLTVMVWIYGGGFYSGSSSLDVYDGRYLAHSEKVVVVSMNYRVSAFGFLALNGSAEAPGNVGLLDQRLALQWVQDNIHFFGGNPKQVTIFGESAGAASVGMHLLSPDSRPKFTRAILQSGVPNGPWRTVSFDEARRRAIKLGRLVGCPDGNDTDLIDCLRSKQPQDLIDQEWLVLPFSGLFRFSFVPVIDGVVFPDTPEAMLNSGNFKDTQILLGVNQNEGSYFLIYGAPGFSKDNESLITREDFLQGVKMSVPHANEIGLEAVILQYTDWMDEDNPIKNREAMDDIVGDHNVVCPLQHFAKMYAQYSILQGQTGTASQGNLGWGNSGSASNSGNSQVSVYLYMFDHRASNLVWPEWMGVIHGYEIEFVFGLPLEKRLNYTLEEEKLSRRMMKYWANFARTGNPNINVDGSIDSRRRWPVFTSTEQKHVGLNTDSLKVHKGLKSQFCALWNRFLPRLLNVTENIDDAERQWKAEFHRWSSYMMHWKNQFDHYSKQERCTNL

[4] = molecular target: T1, soybean lipoxygenase (isozyme LOX-1); assay: Soybean lipoxygenase inhibition study; type: biochemical; settings: for inhibition at 100 µM: read-out: LOX (% Inhibition at 100 μM) ± SEM, soybean lipoxygenase, 100 μM
[5] = soybean lipoxygenase, sodium linoleate substrate, read-out: LOX IC50 (μM) ± SEM

| Compound | AAPH Inhibition (%, at 100 μΜ) [2] [%] | RM ± S.D. [3] | inhibition at 100 µM (eel AChE) [%] | IC50 [4, 5] [µM] | further results |
| --- | --- | --- | --- | --- | --- |
| O=C1/C(=C/c2cccc3ccccc23)CNC/C1=C\c1cccc2ccccc12 [1a, (3E,5E)-3,5-bis(naphthalen-1-ylmethylene)piperidin-4-one] | – | – | – | – | IC50 [1]: 37 µM |
| O=C1/C(=C/c2cccs2)CNC/C1=C\c1cccs1 [1b, (3E,5E)-3,5-bis(thiophen-2-ylmethylene)piperidin-4-one] | – | – | – | – | IC50 [1]: 330 µM |
| O=C1/C(=C/c2c[nH]c3ccccc23)CNC/C1=C\c1c[nH]c2ccccc12 [1c, (3E,5E)-3,5-bis((1H-indol-3-yl)methylene)piperidin-4-one] | – | – | – | – | IC50 [1]: 380 µM |
| O=C1/C(=C/c2ccc3[nH]ccc3c2)CNC/C1=C\c1ccc2[nH]ccc2c1 [1d, (3E,5E)-3,5-bis((1H-indol-5-yl)methylene)piperidin-4-one] | – | – | – | – | IC50 [1]: 410 µM |
| O=C1/C(=C/c2ccccc2)CNC/C1=C\c1ccccc1 [1g, (3E,5E)-3,5-dibenzylidenepiperidin-4-one] | – | – | – | – | LOX (% Inhibition at 100 μM) ± SEM [1]: 8% ± 0.2 |
| O=C1/C(=C/c2ccc(F)cc2)CNC/C1=C\c1ccc(F)cc1 [1j, (3E,5E)-3,5-bis(4-fluorobenzylidene)piperidin-4-one] | 36.2 ± 1.8 | – | – | – | – |
| O=C1/C(=C/c2cccc3ccccc23)CC/C1=C\c1cccc2ccccc12 [1k, (2E,5E)-2,5-bis(naphthalen-1-ylmethylene)cyclopentanone] | 100 ± 2.2 | 0.872 ± 0.039 | 36 | 14 | – |
| O=C1/C(=C/c2ccccc2)COC/C1=C\c1ccccc1 [1l, (3E,5E)-3,5-dibenzylidenedihydro-2H-pyran-4(3H)-one] | 42 ± 1.5 | – | 25 | – | inhibition at 100 µM [4]: < 10% |
| O=C1/C(=C/c2cccc3ccccc23)COC/C1=C\c1cccc2ccccc12 [1m, (3E,5E)-3,5-bis(naphthalen-1-ylmethylene)dihydro-2H-pyran-4(3H)-one] | 100 ± 2.8 | 0.577 ± 0.027 | 32 | 50.5 | – |
| O=C1/C(=C/c2cccc3ccccc23)CSC/C1=C\c1cccc2ccccc12 [1n, (3Z,5Z)-3,5-bis(naphthalen-1-ylmethylene)dihydro-2H-thiopyran-4(3H)-one] | 100 ± 2.5 | 0.131 ± 0.142 | 18 | 57.5 | – |
| S=C1/C(=C/c2ccccc2)CNC/C1=C\c1ccccc1 [1o, (3E,5E)-3,5-dibenzylidenepiperidine-4-thione] | 8 ± 0.01 | −0.848 ± 0.19 | – | 10 | inhibition at 100 µM [4]: < 10% |
| S=C1/C(=C/c2cccc3ccccc23)CNC/C1=C\c1cccc2ccccc12 [1p, (3E,5E)-3,5-bis(naphthalen-1-ylmethylene)piperidine-4-thione] | 100 ± 3.3 | −0.679 ± 0.035 | 26.6 | 35 | – |
| O=C1/C(=C/c2cc3ccccc3o2)CNC/C1=C\c1cc2ccccc2o1 [1q, (3E,5E)-3,5-bis(benzofuran-2-ylmethylene)piperidin-4-one] | 13 ± 0.2 | −0.019 ± 0.143 | 16.5 | – | inhibition at 100 µM [4]: 3% |
| O=C(O)/C=C/c1ccccc1 [2a] | 78 ±1.6 | −0.485 ± 0.044 | 4.6 | – | – |
| O=C(O)/C=C/c1cccc2ccccc12 [2b] | 78 ± 0.7 | −0.576 ± 0.077 | – | – | IC50 [4]: 27.5 µM |
| O=C1/C(=C/c2cccc3ccccc23)CN(C(=O)C=Cc2ccccc2)C/C1=C\c1cccc2ccccc12 [3a, (3E,5E)-1-cinnamoyl-3,5-bis(naphthalen-1-ylmethylene)piperidin-4-one] | 91 ± 1.9 | 0.599 ± 0.024 | – | 50 | IC50 (eel AChE): 85 µM |
| O=C1/C(=C/c2ccccc2)CN(C(=O)/C=C/c2cccc3ccccc23)C/C1=C\c1ccccc1 [3b, (3E,5E)-3,5-dibenzylidene-1-((E)-3-(naphthalen-1-yl)acryloyl)piperidin-4-one] | 90 ± 2.8 | 0.509 ± 0.062 | 17 | 55 | – |
| O=C1/C(=C/c2cccc3ccccc23)CN(C(=O)/C=C/c2cccc3ccccc23)C/C1=C\c1cccc2ccccc12 [3c, (3E,5E)-1-((E)-3-(naphthalen-1-yl)acryloyl)-3,5-bis(naphthalen-1-ylmethylene)piperidin-4-one] | 88 ± 2.0 | −0.658 and −0.658 ± 0.061 | 29 | 37.5 | – |
| O=C1/C(=C/c2ccc(F)cc2)CN(C(=O)C=Cc2ccccc2)C/C1=C\c1ccc(F)cc1 [3d, (3E,5E)-1-cinnamoyl-3,5-bis(4-fluorobenzylidene)piperidin-4-one] | 84 ± 1.7 | 0.237 ± 0.06 | 31 | 63.5 | – |
| O=C1/C(=C/c2ccc(F)cc2)CN(C(=O)/C=C/c2cccc3ccccc23)C/C1=C\c1ccc(F)cc1 [3f, (3E,5E)-3,5-bis(4-fluorobenzylidene)-1-((E)-3-(naphthalen-1-yl)acryloyl)piperidin-4-one] | 90 ± 2.4 | 0.564 ± 0.045 | 24 | 55 | – |
| O=C1/C(=C/c2ccccc2)CN(C(=O)C=Cc2ccccc2)C/C1=C\c1ccccc1 [3g, (3E,5E)-3,5-dibenzylidene-1-cinnamoylpiperidin-4-one] | 53 ± 1.6 | 0.235 ± 0.039 | – | – | IC50 (eel AChE): 100 µM; IC50 [4]: 82 µM |
| O=C1/C(=C/c2cccc3ccccc23)CN(C(=O)/C=C/c2ccc(O)c(O)c2)C/C1=C\c1cccc2ccccc12 [3h, (3E,5E)-1-((E)-3-(3,4-dihydroxyphenyl)acryloyl)-3,5-bis(naphthalen-1-ylmethylene)piperidin-4-one] | 93 ± 2.2 | −0.657 and −0.657 ± 0.013 | 14 to 34 | 34 | – |
| COc1cc(/C=C/C(=O)CC(=O)/C=C/c2ccc(O)c(OC)c2)ccc1O [Curcumin, reference compound] | – | 0.175 ± 0.029 | – | – | inhibition at 100 µM [4]: 38% |
| Cc1c(C)c2c(c(C)c1O)CCC(C)(C(=O)O)O2 (centres unmarked) [Trolox, reference compound] | 92 ± 2.1 | – | – | – | – |
| (3E,5E)-3,5-bis((1H-imidazol-2-yl)methylene)piperidin-4-one [1f] | – | – | – | – | LOX (% Inhibition at 100 μM) ± SEM [1]: 36% ± 0.9 |
